Patent US11071550B2, “Methods and devices for treating pancreatitis” (priority 2017, dated 2021)

Assays:
mouse pancreas [1] = tested on: mouse pancreas
monkey pancreas = conditions: 1% acetic acid
From the text: Cynomologus monkeys can be used to study the retrograde infusion protocol in primates. […] The Cynomologus monkeys are first quarantined for 30 days, then transferred to the primate facility and given a 1 to 2-week acclimatization period before operating. After acclimatization, the animals undergo a laparotomy and duodenotomy with cannulation of the ampulla of Vater and temporary clamping of the common bile duct to prevent perfusion of the liver (additional details below).
Fluoroscopic dye can also be infused to confirm the location and positioning of the catheter (FIGS. 12A and 12B). […] The catheter and clamp are then removed and the surgery completed.
Cynomologus infusion procedure details: After induction of general anesthesia, the abdomen is prepped and draped and a 10 to 12 centimeter upper abdominal midline incision created. The duodenum is fully mobilized out of the retroperitoneum and a non-crushing clamp applied to the common bile duct to prevent the composition from perfusing the bile duct and liver. A two centimeter duodenotomy is then created to expose the ampulla of Vater, which is cannulated with a 2.8 French double lumen umbilical artery catheter. A clamp is then placed on the minor papilla and catheter to prevent back leaking of the composition. […]
During the 3 to 6-week period between the procedure and the sacrifice, Cynomologus monkeys are supplied with CREON enzymes as a dietary supplement to avoid malabsorption due to loss of acinar enzyme production by the pancreas. […] Throughout the 3 to 6-week period, the Cynomologus monkeys are monitored for scleral icterus as a sign of possible biliary obstruction due to bile duct structuring caused by the infusion.
At harvest, the pancreas and duodenum are examined grossly in situ, and then removed en bloc along with the common bile duct. […] In addition, beta cell mass is calculated based on the percent insulin positive area on histology along with the gross weight of the pancreas.

[2] = tested on: ligated tail of the pancreas
From the text: Mouse pancreatic duct ligation (PDL) yields a model that is reflective of chronic pancreatitis with progressive loss of islet tissue. In the PDL procedure, the pancreatic duct is ligated at the mid-point of the pancreas (FIG. 4, right image). Thus, only the distal half (tail) of the pancreas is affected since the ligation is positioned at the mid-point of the duct. […] FIGS. 5A-5E show insulin staining using DAB, whereas FIGS. 5F-5J show insulin and amylase staining using immunofluorescence (with a Hoescht counterstain for labeling cell nuclei).
The negative effects of a pancreatitis milieu on β-cell function are well known (17).
Five repeats are analyzed in each condition. […] Significance is considered when p<0.05.

mouse pancreas [3] = tested on: mouse pancreas; remark: listed apart in the source
Mouse islets = assay: In vitro static glucose stimulated insulin secretion (GSIS) of isolated islets
[4] = 100% ethanol infused at 8 weeks post-PDL
[5] = 100% ethanol, 1, 3, 6, 9 months

CC(=O)O [acetic acid]
immunohistochemistry of treated pancreatic tissue (insulin, amylase) (mouse pancreas [1]; 1% acetic acid): insulin positive and amylase negative
islets (histology) (mouse pancreas [1]; 1% acetic acid): remained intact
open field testing: rearing (time pressed) vs sham group (mouse pancreas [1]; 1% acetic acid): not significantly different
exocrine tissue (mouse pancreas [1]; 1% acetic acid, 6 months (FIG. 7)): ablation of the exocrine tissue
pain (mouse pancreas [1]; 1% acetic acid, conclusion from open field testing): does not cause pain
open field testing: distance traveled vs sham group (mouse pancreas [1]; 1% acetic acid, distance in meters): not significantly different
recovery from the infusion procedure (monkey pancreas; e.g. 7 milliliters at 500 centimeters of water): recover well
ablation of the exocrine pancreas (monkey pancreas; three weeks after infusion): ablation of the exocrine pancreas in the head and body of the pancreas, and part of the tail
islets (H&E) (monkey pancreas; three weeks after infusion): intact islets

CCO [ethanol]
loss of islets in the pancreatic tail [2, 4]: prevents the loss of islets in the pancreatic tail
recurrent inflammation [2, 4]: no detectable recurrent inflammation
regeneration of acinar cells ([2]; 100% ethanol infused at 8 weeks post-PDL, insulin and amylase staining): no detectable regeneration of acinar cells
β-cell mass in the ligated tail ([2]; PDL + ethanol infusion at 8 weeks, 24 weeks, mean±SEM): 0.61±0.01 milligrams
fasting blood glucose levels vs PDL and sham operated ([2]; PDL+ethanol-infused, 24 weeks): no different
glucose tolerance testing vs PDL and sham operated ([2]; PDL+ethanol-infused, 24 weeks): no different
jaundice rates ([2]; male, C57BL/6, mouse, in vivo): less than 5%
time to significant levels of ethanol in the blood after infusion (mouse pancreas [3]; 100% ethanol pancreatic ductal infusion): ≤ 5 min
pancreatic acinar tissue upon sacrifice (mouse pancreas [3]; 100% ethanol, 100 microliters, sacrifice at 1, 3, 6, 9 months): no evidence of pancreatic acinar tissue
amylase (AMY) staining (mouse pancreas [3]; [5]): absent at all time points
pancreatic endocrine tissue (β-cells and alpha cells) (mouse pancreas [3]; [5]): well-preserved
endocrine function: in vivo insulin levels during glucose tolerance testing (mouse pancreas [3]; 100% ethanol, 9-month time point): appears normal
islet vasculature (CD31 staining) (mouse pancreas [3]; 100% ethanol, 9 months): appears to be intact
fasting glucose levels vs sham-operated controls (mouse pancreas [3]; 100% ethanol, all time points): no difference
glucose tolerance tests vs sham-operated controls (mouse pancreas [3]; 100% ethanol, all time points): no difference
body weight vs controls (mouse pancreas [3]; 100% ethanol, elemental diet): not different from controls
β-cell mass vs sham-operated (mouse pancreas [3]; 100% ethanol, pancreatic tail, any time point): no significant difference
fasting glucose levels vs sham operated controls (mouse pancreas [1]; Example 2, all time points): no difference
glucose tolerance tests vs sham operated controls (mouse pancreas [1]; Example 2, all time points): no difference
insulin secretion by islets from the pancreatic tail (in vitro GSIS) (Mouse islets; PDL+ethanol-infused tail islets, per 200 islets, low or high glucose, vs sham): normal insulin secretion pattern
endocrine function: in vitro glucose-stimulated insulin secretion (GSIS) (Mouse islets; islets from 100% ethanol-infused mice, 9-month time point): appears normal
